Columns and labels:
[1] = tested on: α-Gal A protein (GLA mutants); experiment: Western blot of GLA protein levels in cells transfected with GLA mutants; format: cell-based; conditions: DGJ and Ambroxol compared to DGJ alone; FIG. 4
Experimental: Western blot analysis for the detection of α-Gal A protein was performed using a commercially available rabbit anti-α-Gal A polyclonal antibody ([H-104] Santa Cruz) Furthermore, a mouse GAPDH monoclonal antibody ([6C5] abcam) was used as an internal loading control.
The cells were then rinsed off from the wells, transferred to micro centrifuge tubes and spun at 14000×g for 10 minutes at 4° C. to pellet the cell debris. The supernatant was used for the analysis. After the determination of protein concentration, […] protein were mixed with a suitable volume of 5× Laemmli loading buffer, boiled for 5 minutes on a thermo shaker (Eppendorf), centrifuged at 14000×g for 10 minutes at 4° C. and loaded on a Criterion precast 4-15% Tris-HCl gel (Bio-Rad). Proteins were transferred electorophoretically to a Nitrocellulose (Amersham Hybond ECL) membrane (GE Healthcare). The membrane was blocked with 5% (w/v) non-fat dried skimmed milk in TBS-Tween 20 [10 mM Tris/HCl (pH 7.5) with 150 mM NaCl and 0.1% Tween 20] at room temperature for 1 hour, and then treated with a primary antibody against GAPDH diluted 1:10000 in a milk/blot solution [3% (w/v) non-fat dried skimmed milk in TBS-Tween 20] at 4° C. overnight. […] Following extensive washing with TBS-Tween 20, protein bands were visualized with an Odyssey Infrared Imager (Li-Cor) and quantified using the Odyssey software.

[2] = target: GLA mutants (alpha-galactosidase A) (Homo sapiens, UniProt P06280, R301Q); conditions: GLA mutant R301Q; Ambroxol in combination with DGJ
[3] = target: GLA mutants (alpha-galactosidase A) (Homo sapiens, UniProt P06280, A156V); conditions: GLA mutant A156V; Ambroxol in combination with DGJ
[4] = target: GLA mutants (alpha-galactosidase A) (Homo sapiens, UniProt P06280, R356W); conditions: GLA mutant R356W; Ambroxol in combination with DGJ
[5] = tested on: GLA mutants (alpha-galactosidase A)
[6] = target: GLA mutants (alpha-galactosidase A) (Homo sapiens, UniProt P06280, E59K); conditions: GLA mutant E59K; Ambroxol in combination with DGJ
[7] = target: GLA mutants (alpha-galactosidase A) (Homo sapiens, UniProt P06280, T410I); conditions: GLA mutant T410I; Ambroxol in combination with DGJ
[8] = target: GLA mutants (alpha-galactosidase A) (Homo sapiens, UniProt P06280, G328A); conditions: GLA mutant G328A; Ambroxol in combination with DGJ
[9] = target: GLA mutants (alpha-galactosidase A) (Homo sapiens, UniProt P06280, R363H); conditions: GLA mutant R363H; Ambroxol in combination with DGJ
GLA mutants (alpha-galactosidase A) (Homo sapiens, UniProt P06280, R363H), sequence (P06280 32-429 R363H): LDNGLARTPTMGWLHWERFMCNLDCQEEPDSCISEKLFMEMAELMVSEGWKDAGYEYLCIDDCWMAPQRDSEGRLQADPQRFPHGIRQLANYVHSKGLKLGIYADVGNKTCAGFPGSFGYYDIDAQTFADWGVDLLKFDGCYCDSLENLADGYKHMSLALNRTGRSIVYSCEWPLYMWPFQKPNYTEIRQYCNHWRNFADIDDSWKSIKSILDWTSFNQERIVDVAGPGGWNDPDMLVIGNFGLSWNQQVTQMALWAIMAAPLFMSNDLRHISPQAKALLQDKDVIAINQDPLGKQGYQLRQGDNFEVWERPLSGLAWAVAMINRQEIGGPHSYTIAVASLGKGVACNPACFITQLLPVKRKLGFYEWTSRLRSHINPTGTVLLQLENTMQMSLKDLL

GLA mutants (alpha-galactosidase A) (Homo sapiens, UniProt P06280, R301Q), sequence (P06280 32-429 R301Q): as the sequence (P06280 32-429 R363H) above, with R270Q, H332R counted along it
GLA mutants (alpha-galactosidase A) (Homo sapiens, UniProt P06280, T410I), sequence (P06280 32-429 T410I): as the sequence (P06280 32-429 R363H) above, with H332R, T379I counted along it
GLA mutants (alpha-galactosidase A) (Homo sapiens, UniProt P06280, E59K), sequence (P06280 32-429 E59K): as the sequence (P06280 32-429 R363H) above, with E28K, H332R counted along it
GLA mutants (alpha-galactosidase A) (Homo sapiens, UniProt P06280, A156V), sequence (P06280 32-429 A156V): as the sequence (P06280 32-429 R363H) above, with A125V, H332R counted along it
GLA mutants (alpha-galactosidase A) (Homo sapiens, UniProt P06280, G328A), sequence (P06280 32-429 G328A): as the sequence (P06280 32-429 R363H) above, with G297A, H332R counted along it
GLA mutants (alpha-galactosidase A) (Homo sapiens, UniProt P06280, R356W), sequence (P06280 32-429 R356W): as the sequence (P06280 32-429 R363H) above, with R325W, H332R counted along it

Nc1c(Br)cc(Br)cc1CN[C@H]1CC[C@H](O)CC1 [Ambroxol, 2-amino-3,5-dibromo-N-[trans-4-hydroxycyclohexyl]benzylamine]
amount of Gal A protein in the cell (Western blot) [1]: higher amount of Gal A | additive Ambroxol effect demonstrated [2]: **** (****p≤0.005) | additive Ambroxol effect demonstrated [3]: **** (****p≤0.005) | additive Ambroxol effect demonstrated [4]: **** (****p≤0.005) | effect on enzyme activity of the mutant forms of GLA ([5]; 40 μM Ambroxol alone, FIG. 1): no effect | activity of mutant alpha-galactosidase A, Ambroxol together with Galactose ([5]; compared to Galactose only, 100 mM galactose and 40 μM Ambroxol (FIG. 3B)): increased | significance of protein activity, Ambroxol and DGJ compared to DGJ alone ([5]; mutations E59K, A156V and G328A, FIG. 6): significant | additive Ambroxol effect demonstrated [6]: **** (****p≤0.005) | additive Ambroxol effect demonstrated [7]: * (*p≤0.1) | additive Ambroxol effect demonstrated [8]: * (*p≤0.1) | additive Ambroxol effect demonstrated [9]: *** (***p≤0.01)

From patent US20210228560A1 (Centogene IP GmbH, priority 2011, published 2021)
